Molecular target: T1, hP2X7 (Homo sapiens, UniProt Q99572)
T1 construct: expressed in transfected cells; host or cells: 1321N1 astrocytoma cells
T1 sequence (Q99572 1-595): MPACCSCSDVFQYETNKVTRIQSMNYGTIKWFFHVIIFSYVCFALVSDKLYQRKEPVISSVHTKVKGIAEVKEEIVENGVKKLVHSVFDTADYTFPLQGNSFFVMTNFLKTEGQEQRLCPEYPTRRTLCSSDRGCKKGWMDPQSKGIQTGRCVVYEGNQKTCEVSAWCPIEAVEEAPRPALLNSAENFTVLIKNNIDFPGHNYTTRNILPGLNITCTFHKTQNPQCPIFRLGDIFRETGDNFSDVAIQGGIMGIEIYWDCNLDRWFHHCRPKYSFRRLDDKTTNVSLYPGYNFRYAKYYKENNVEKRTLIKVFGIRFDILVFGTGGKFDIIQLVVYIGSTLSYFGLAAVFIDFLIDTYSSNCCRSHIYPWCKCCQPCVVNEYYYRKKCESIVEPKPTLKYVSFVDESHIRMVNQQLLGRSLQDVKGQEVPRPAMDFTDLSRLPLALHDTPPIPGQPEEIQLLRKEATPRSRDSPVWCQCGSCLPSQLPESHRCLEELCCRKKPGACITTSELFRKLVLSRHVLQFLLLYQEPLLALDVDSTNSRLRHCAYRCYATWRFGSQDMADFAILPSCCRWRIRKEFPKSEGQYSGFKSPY
Assay: P2X7 antagonism: ligand-induced Ca2+ flux in 1321N1 astrocytoma cells overexpressing hP2X7
Format: cell-based
Settings: pIC50 = -log(IC50), read-out: hP2RX7pIC50 (mean pIC50 values) (converted)
Experimental: Extracellular binding of ATP to P2X7 that is expressed in the cell-membrane opens the ligand gated cation channel and allows Ca^2+ entry into the cell. This ligand-induced Ca^2+ flux was measured in 1321N1 astrocytoma cells overexpressing hP2X7 for the compounds of the present invention.
The calcium assay kit used (Molecular Devices, R8090), provides a Ca^2+ sensitive dye together with a quenching dye. However, no specifications are given by the manufacturer. The kit most likely consists of a membrane permeable acetoxymethyl (AM) ester of a fluorescent Ca^2+ indicator, such as fluo-4 or fluo-3. Upon cellular uptake, the AM esters get cleaved by esterases, liberating the Ca^2+-sensitive dye which can then bind calcium. The dyes have an absorption spectrum compatible with excitation at 488 nm by argon laser sources and a large fluorescence intensity increase in response to Ca^2+ binding without an accompanying spectral shift. Emission wavelength is in the range of 510-560 nm.
The fluorescence, and thus the changes in intracellular [Ca^2+] in the 1321N1 cells was monitored in time before and after addition of the agonist. The effect of the antagonist was measured as % control and as IC50.

SMILES	IC50 [nM]
O=C(NCC(c1cnc(C(F)(F)F)nc1)N1CCOCC1)c1cccc2nc(NC3CCC3)ccc12 (stereo not shown) [Compound 183]	53.7
CCCNc1ccc2c(C(=O)NCC(c3cnc(C(F)(F)F)nc3)N3CCOCC3)cccc2n1 (stereo not shown) [Compound 184]	61.7
COCCCNc1ccc2c(C(=O)NCC(c3cnc(C(F)(F)F)nc3)N3CCOCC3)cccc2n1 (stereo not shown) [Compound 185]	129
Nc1ncc(C(CNC(=O)c2cccc3nc(N4CCOCC4)ccc23)N2CCC(F)(F)CC2)cn1 (stereo not shown) [Compound 187]	87.1
CN(C)c1ncc(C(CNC(=O)c2cccc3nc(N4CCOCC4)ccc23)N2CCC(F)(F)CC2)cn1 (stereo not shown) [Compound 188]	69.2
O=C(NCC(c1cnc(NC2CC2)nc1)N1CCC(F)(F)CC1)c1cccc2nc(N3CCOCC3)ccc12 (stereo not shown) [Compound 189]	110
O=C(NCC(c1cnc(N2CCCC2)nc1)N1CCC(F)(F)CC1)c1cccc2nc(NC3CC3)ccc12 (stereo not shown) [Compound 190]	77.6
O=C(NCC(c1cnc(-c2ccccc2)nc1)N1CCC(F)(F)CC1)c1cccc2nc(N3CCOCC3)ccc12 (stereo not shown) [Compound 191]	64.6
COc1ncc(C(CNC(=O)c2cccc3nc(NC4CC4)ccc23)N2CCC(F)(F)CC2)cn1 (stereo not shown) [Compound 192]	55
O=C(NCC(c1cnc(-c2ccccc2)nc1)N1CCC(F)(F)CC1)c1cccc2nc(NC3CC3)ccc12 (stereo not shown) [Compound 193]	61.7
Nc1ncc(C(CNC(=O)c2cccc3nc(NC4CC4)ccc23)N2CCC(F)(F)CC2)cn1 (stereo not shown) [Compound 194]	178
CN(C)c1ncc(C(CNC(=O)c2cccc3nc(NC4CC4)ccc23)N2CCC(F)(F)CC2)cn1 (stereo not shown) [Compound 195]	72.4
CC(C)C1CCN(c2ccc3c(C(=O)NCC(c4cnc(C(F)(F)F)nc4)N4CCOCC4)cccc3n2)CC1 (stereo not shown) [Compound 196]	195
O=C(NCC(c1cnc(C(F)(F)F)nc1)N1CCOCC1)c1cccc2nc(N3CCN(CCO)CC3)ccc12 (stereo not shown) [Compound 197]	120
CN1CCN(c2ccc3c(C(=O)NCC(c4cnc(C(F)(F)F)nc4)N4CCOCC4)cccc3n2)CC1 (stereo not shown) [Compound 198]	77.6
CC(C)N1CCN(c2ccc3c(C(=O)NCC(c4cnc(N(C)C)nc4)N4CCOCC4)cccc3n2)CC1 (stereo not shown) [Compound 199]	407
COc1ncc(C(CNC(=O)c2cccc3nc(N4CCN(C(C)C)CC4)ccc23)N2CCC(F)(F)CC2)cn1 (stereo not shown) [Compound 200]	51.3
CC(C)N1CCN(c2ccc3c(C(=O)NCC(c4cnc(-c5ccccc5)nc4)N4CCC(F)(F)CC4)cccc3n2)CC1 (stereo not shown) [Compound 201]	115
O=C(NCC(c1cnc(N2CCNCC2)nc1)N1CCC(F)(F)CC1)c1cccc2nc(NC3CC3)ccc12 (stereo not shown) [Compound 202]	115
CC(C)N1CCN(c2ccc3c(C(=O)NCC(c4cnc(N5CCOCC5)nc4)N4CCC(F)(F)CC4)cccc3n2)CC1 (stereo not shown) [Compound 203]	67.6
O=C(NCC(c1cnc(OC2CCC2)nc1)N1CCC(F)(F)CC1)c1cccc2nc(N3CCCC3)ccc12 (stereo not shown) [Compound 204]	47.9

SMILES	IC50 [nM]
O=C(NCC(c1cnc(N2CCOCC2)nc1)N1CCC(F)(F)CC1)c1cccc2nc(NC3CC3)ccc12 (stereo not shown) [Compound 205]	64.6
CN(C)c1ncc(C(CNC(=O)c2cccc3nc(N4CCCC4)ccc23)N2CCC(F)(F)CC2)cn1 (stereo not shown) [Compound 206]	105
CCc1ncc(C(CNC(=O)c2cccc3nc(NC4CC4)ccc23)N2CCOCC2)cn1 (stereo not shown) [Compound 207]	138
O=C(NCC(c1cncnc1)N1CCC(F)(F)CC1)c1cccc2nc(N3CCCC3)ccc12 (stereo not shown) [Compound 208]	45.7
CC(C)N1CCN(c2ccc3c(C(=O)NCC(c4cnc(N(C)C)nc4)N4CCC(F)(F)CC4)cccc3n2)CC1 (stereo not shown) [Compound 209]	117
CC(C)c1ncc(C(CNC(=O)c2cccc3nc(N4CCCC4)ccc23)N2CCOCC2)cn1 (stereo not shown) [Compound 210]	372
O=C(NCC(c1cncnc1)N1CCC(F)(F)CC1)c1cccc2nc(NCC3CC3)ccc12 (stereo not shown) [Compound 211]	79.4
CCOc1ncc(C(CNC(=O)c2cccc3nc(N4CCCC4)ccc23)N2CCC(F)(F)CC2)cn1 (stereo not shown) [Compound 212]	41.7
CC(C)N1CCN(c2ccc3c(C(=O)NCC(c4cnc(C5CCCC5)nc4)N4CCC(F)(F)CC4)cccc3n2)CC1 (stereo not shown) [Compound 213]	100
O=C(NCC(c1cnc(OC2CCC2)nc1)N1CCC(F)(F)CC1)c1cccc2nc(NC3CC3)ccc12 (stereo not shown) [Compound 214]	33.9
CC(C)N1CCN(c2ccc3c(C(=O)NCC(c4cnc(N5CCCC5)nc4)N4CCC(F)(F)CC4)cccc3n2)CC1 (stereo not shown) [Compound 215]	174
O=C(NCC(c1cnc(NC2CC2)nc1)N1CCC(F)(F)CC1)c1cccc2nc(N3CCCC3)ccc12 (stereo not shown) [Compound 216]	100
CCc1ncc(C(CNC(=O)c2cccc3nc(NCC4CC4)ccc23)N2CCC(F)(F)CC2)cn1 (stereo not shown) [Compound 217]	47.9
CN(C)c1ncc(C(CNC(=O)c2cccc3nc(N4CCCC4)ccc23)N2CCOCC2)cn1 (stereo not shown) [Compound 218]	316
O=C(NCC(c1cnc(N2CCCC2)nc1)N1CCOCC1)c1cccc2nc(N3CCCC3)ccc12 (stereo not shown) [Compound 219]	126
CCc1ncc(C(CNC(=O)c2cccc3nc(N4CCOCC4)ccc23)N2CCC(F)(F)CC2)cn1 (stereo not shown) [Compound 220]	83.2
CCc1ncc(C(CNC(=O)c2cccc3nc(NC4CC4)ccc23)N2CCC(F)(F)CC2)cn1 (stereo not shown) [Compound 221]	67.6
CC(=O)N1CCN(c2ncc(C(CNC(=O)c3cccc4nc(N5CCCC5)ccc34)N3CCC(F)(F)CC3)cn2)CC1 (stereo not shown) [Compound 222]	66.1
O=C(NCC(c1cnc(N2CCNCC2)nc1)N1CCC(F)(F)CC1)c1cccc2nc(NCC3CC3)ccc12 (stereo not shown) [Compound 223]	195
O=C(NCC(c1cnc(N2CCOCC2)nc1)N1CCC(F)(F)CC1)c1cccc2nc(N3CCCC3)ccc12 (stereo not shown) [Compound 224]	115

Further lines, results first:

IC50 [nM]	SMILES
102	O=C(NCC(c1cnc(N2CCCC2)nc1)N1CCC(F)(F)CC1)c1cccc2nc(N3CCCC3)ccc12 (stereo not shown) [Compound 225]
162	Nc1ncc(C(CNC(=O)c2cccc3nc(N4CCCC4)ccc23)N2CCC(F)(F)CC2)cn1 (stereo not shown) [Compound 226]
33.1	CC(C)Oc1ncc(C(CNC(=O)c2cccc3nc(NCC4CC4)ccc23)N2CCOCC2)cn1 (stereo not shown) [Compound 227]
51.3	CCOc1ncc(C(CNC(=O)c2cccc3nc(N4CCOCC4)ccc23)N2CCOCC2)cn1 (stereo not shown) [Compound 228]
69.2	CCOc1ncc(C(CNC(=O)c2cccc3nc(NC4CC4)ccc23)N2CCOCC2)cn1 (stereo not shown) [Compound 229]
141	CC(C)c1ncc(C(CNC(=O)c2cccc3nc(N4CCOCC4)ccc23)N2CCOCC2)cn1 (stereo not shown) [Compound 230]
115	CC(C)c1ncc(C(CNC(=O)c2cccc3nc(NC4CC4)ccc23)N2CCOCC2)cn1 (stereo not shown) [Compound 231]
170	CN(C)c1ncc(C(CNC(=O)c2cccc3nc(N4CCOCC4)ccc23)N2CCOCC2)cn1 (stereo not shown) [Compound 232]
148	CN(C)c1ncc(C(CNC(=O)c2cccc3nc(NC4CC4)ccc23)N2CCOCC2)cn1 (stereo not shown) [Compound 233]
26.9	O=C(NCC(c1cnc(OCC2CC2)nc1)N1CCC(F)(F)CC1)c1cccc2nc(NCC3CC3)ccc12 (stereo not shown) [Compound 234]
56.2	CC(C)Oc1ncc(C(CNC(=O)c2cccc3nc(N4CCOCC4)ccc23)N2CCC(F)(F)CC2)cn1 (stereo not shown) [Compound 235]
34.7	CC(C)Oc1ncc(C(CNC(=O)c2cccc3nc(NC4CC4)ccc23)N2CCC(F)(F)CC2)cn1 (stereo not shown) [Compound 236]
89.1	O=C(NCC(c1cnc(-c2ccccc2)nc1)N1CCC(F)(F)CC1)c1cccc2nc(NCC3CC3)ccc12 (stereo not shown) [Compound 237]
38.9	O=C(NCC(c1cnc(C2CCCC2)nc1)N1CCC(F)(F)CC1)c1cccc2nc(NC3CC3)ccc12 (stereo not shown) [Compound 238]
53.7	O=C(NCC(c1cnc(OC2CCC2)nc1)N1CCC(F)(F)CC1)c1cccc2nc(N3CCOCC3)ccc12 (stereo not shown) [Compound 239]
57.5	CC(=O)N1CCN(c2ncc(C(CNC(=O)c3cccc4nc(NCC5CC5)ccc34)N3CCC(F)(F)CC3)cn2)CC1 (stereo not shown) [Compound 240]
117	CC(C)Oc1ncc(C(CNC(=O)c2cccc3nc(N4CCOCC4)ccc23)N2CCOCC2)cn1 (stereo not shown) [Compound 241]
115	CC(C)Oc1ncc(C(CNC(=O)c2cccc3nc(NC4CC4)ccc23)N2CCOCC2)cn1 (stereo not shown) [Compound 242]
50.1	CCOc1ncc(C(CNC(=O)c2cccc3nc(NCC4CC4)ccc23)N2CCOCC2)cn1 (stereo not shown) [Compound 243]
79.4	CC(C)c1ncc(C(CNC(=O)c2cccc3nc(NCC4CC4)ccc23)N2CCOCC2)cn1 (stereo not shown) [Compound 244]
